The test system of the test is HEK293 cells. As to the kind of experiment: HEK293 VLCFA-LPC IC50 determination (13C-labeled C26:0 LPC by UHPLC/MS). Type of test: cell-based, human. The conditions noted are these: Homo sapiens, average of one or more replicates, read-out: Average HEK293 IC50. The gist of the method:
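Suspension HEK293 cells (final 0.5 million/mL after mixing with equal volume) incubated 48 hours with compound plus 13C-acetate (1.0 mg/mL in added media), shaking at 37° C. Lipids extracted with hexane/isopropanol or methanol, C13:0 LPC standard. UHPLC/MS of 13C-labeled C26:0 LPC (638.500/104.100 m/z); IC50 by four-parameter fit.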

Where [1] appears, read: HEK293, 48 h, 13C-labeled C26:0 LPC, 48 hours.

Each structure is given as a SMILES string. Where two headings read alike, the source gives them in different places. Bounds are passed on as bounds.

Broadly, the IC50 is the concentration at which inhibition is half-maximal.

Consider `COc1ncc(-n2nc(NC(=O)C3(c4ccccc4F)CC3)cc2F)cc1F` [Compound 442, N-[5-fluoro-1-(5-fluoro-6-methoxy-3-pyridyl)pyrazol-3-yl]-1-(2-fluorophenyl)cyclopropanecarboxamide], for which the IC50 (HEK293, HEK293 cells) is > 5000 nM.
As to `O=C(Nc1ccn(-c2ccccc2)n1)C1(c2ccccc2)CC1CO` (stereo not shown) [Compound 444, 2-(hydroxymethyl)-1-phenyl-N-(1-phenyl-1H-pyrazol-3-yl)cyclopropane-1-carboxamide], under setting [1], the IC50 is 260 nM.
On to `O=C(Nc1nn(-c2cncc(F)c2)cc1F)C1(c2ccccc2)CC1` [Compound 445, N-[4-fluoro-1-(5-fluoro-3-pyridyl)pyrazol-3-yl]-1-phenyl-cyclopropanecarboxamide], for which, under setting [1], the IC50 stood at 1400 nM.
Take `COc1cc(-n2ccc(NC(=O)C3(c4ccccc4F)CC3)n2)cnn1` [Compound 447, 1-(2-fluorophenyl)-N-[1-(6-methoxypyridazin-4-yl)pyrazol-3-yl]cyclopropanecarboxamide]: under setting [1], the IC50 was > 5000 nM.
With `O=C(Nc1ccn(-c2ccc(F)cc2F)n1)C1(c2ccccc2F)CC1` [Compound 448, N-[1-(2,4-difluorophenyl)pyrazol-3-yl]-1-(2-fluorophenyl)cyclopropanecarboxamide], the IC50 (HEK293, HEK293 cells) worked out at 140 nM.
Consider `CCOc1cc(-n2ccc(NC(=O)C3(c4ccccc4F)CC3)n2)ccn1` [Compound 449, N-[1-(2-ethoxy-4-pyridyl)pyrazol-3-yl]-1-(2-fluorophenyl)cyclopropanecarboxamide], for which the IC50 (HEK293, HEK293 cells) was > 5000 nM.
Take `Cc1cc(F)ccc1-n1ccc(NC(=O)C2(c3ncccc3F)CC2)n1` [Compound 450, N-(1-(4-fluoro-2-methylphenyl)-1H-pyrazol-3-yl)-1-(3-fluoropyridin-2-yl)cyclopropane-1-carboxamide]: where the note is “HEK293, HEK293 cells”, the 50% inhibitory concentration (IC50) was > 5000 nM.
On the same count and under the same terms, the figure for `Cc1cc(NC(=O)C2(c3ncccc3F)CC2)nn1-c1ccc(F)cc1F` [Compound 451, N-[1-(2,4-difluorophenyl)-5-methyl-pyrazol-3-yl]-1-(3-fluoro-2-pyridyl)cyclopropanecarboxamide] is 2400 nM; for `COc1ncc(-n2ccc(NC(=O)C3(c4ncccc4F)CC3)n2)cc1F` [Compound 452, N-[1-(5-fluoro-6-methoxy-3-pyridyl)pyrazol-3-yl]-1-(3-fluoro-2-pyridyl)cyclopropanecarboxamide] it is 54 nM.
`O=C(Nc1ccn(-c2ncccc2Cl)n1)C1(c2ncccc2F)CC1` [Compound 453]: the IC50 (HEK293, HEK293 cells) was > 5000 nM.
With `COc1ncc(-n2ccc(NC(=O)C3(c4ncccc4F)CC3)n2)cn1` [Compound 454, 1-(3-fluoro-2-pyridyl)-N-[1-(2-methoxypyrimidin-5-yl)pyrazol-3-yl]cyclopropanecarboxamide], where the note is “HEK293, HEK293 cells”, the 50% inhibitory concentration (IC50) is > 5000 nM.
`O=C(Nc1ccn(-c2cncc(Cl)c2)n1)C1(c2ncccc2F)CC1` [Compound 455, N-[1-(5-chloro-3-pyridyl)pyrazol-3-yl]-1-(3-fluoro-2-pyridyl)cyclopropanecarboxamide]: the IC50 (HEK293, HEK293 cells) turned out to be 100 nM.
The same measure, in the same setting: to `O=C(Nc1ccn(-c2ccc(F)cc2)n1)C1(c2ncccc2F)CC1` [Compound 456, N-[1-(4-fluorophenyl)pyrazol-3-yl]-1-(3-fluoro-2-pyridyl)cyclopropanecarboxamide] belongs 100 nM; to `O=C(Nc1ccn(-c2ccc(C(F)(F)F)cc2)n1)C1(c2ncccc2F)CC1` [Compound 457, 1-(3-fluoro-2-pyridyl)-N-[1-[4-(trifluoromethyl)phenyl]pyrazol-3-yl]cyclopropanecarboxamide], > 5000 nM.
Still for that read-out and setting: to `O=C(Nc1ccn(-c2cccnn2)n1)C1(c2ncccc2F)CC1` [Compound 458, 1-(3-fluoro-2-pyridyl)-N-(1-pyridazin-3-ylpyrazol-3-yl)cyclopropanecarboxamide] belongs 940 nM; to `O=C(Nc1ccn(-c2cncnc2)n1)C1(c2ncccc2F)CC1` [Compound 459, 1-(3-fluoro-2-pyridyl)-N-(1-pyrimidin-5-ylpyrazol-3-yl)cyclopropanecarboxamide], 920 nM.
Take `O=C(Nc1ccn(-c2ncccc2F)n1)C1(c2ncccc2F)CC1` [Compound 460, 1-(3-fluoro-2-pyridyl)-N-[1-(3-fluoro-2-pyridyl)pyrazol-3-yl]cyclopropanecarboxamide]: the IC50 (HEK293, HEK293 cells) is > 2000 nM.
On the same count and under the same terms, to `O=C(Nc1ccn(-c2cc(F)cc(F)c2)n1)C1(c2ncccc2F)CC1` [Compound 461, N-[1-(3,5-difluorophenyl)pyrazol-3-yl]-1-(3-fluoro-2-pyridyl)cyclopropanecarboxamide] belongs 76 nM; to `O=C(Nc1cc(F)n(-c2cncc(F)c2)n1)C1(c2ncccc2F)CC1` [Compound 462, N-[5-fluoro-1-(5-fluoro-3-pyridyl)pyrazol-3-yl]-1-(3-fluoro-2-pyridyl)cyclopropanecarboxamide], > 5000 nM.
In the case of `O=C(Nc1cc(F)n(-c2cncc(F)c2)n1)C1(c2ccccc2F)CC1` [Compound 463, N-[5-fluoro-1-(5-fluoro-3-pyridyl)pyrazol-3-yl]-1-(2-fluorophenyl)cyclopropanecarboxamide], the IC50 (HEK293, HEK293 cells) was > 5000 nM.
Still for that read-out and setting: to `O=C(Nc1ccn(-c2cncc(F)c2)n1)C1(c2ccccn2)CC1` [Compound 464, N-[1-(5-fluoro-3-pyridyl)pyrazol-3-yl]-1-(2-pyridyl)cyclopropanecarboxamide] belongs 130 nM; to `O=C(Nc1ccn(-c2cncc(F)c2)n1)C1(c2cccc(OC(F)(F)F)c2)CC1` [Compound 465], 24 nM.
Consider `O=C(Nc1ccn(-c2cncc(F)c2)n1)C1(c2ccc(F)cn2)CC1` [Compound 466, 1-(5-fluoro-2-pyridyl)-N-[1-(5-fluoro-3-pyridyl)pyrazol-3-yl]cyclopropanecarboxamide], for which the IC50 (HEK293, HEK293 cells) turned out to be 560 nM.
Same read-out and setting: to `COc1cc(-n2ccc(NC(=O)C3(c4ccccc4F)CC3)n2)c(F)cn1` [Compound 467, N-[1-(5-fluoro-2-methoxy-4-pyridyl)pyrazol-3-yl]-1-(2-fluorophenyl)cyclopropanecarboxamide] belongs 2700 nM.
In the case of `COc1cc(-n2ccc(NC(=O)C3(c4ccccc4F)CC3)n2)ccc1F` [Compound 468, N-[1-(4-fluoro-3-methoxy-phenyl)pyrazol-3-yl]-1-(2-fluorophenyl)cyclopropanecarboxamide], the IC50 (HEK293, HEK293 cells) is > 5000 nM.
Turning to `COc1ccncc1-n1ccc(NC(=O)C2(c3ccccc3F)CC2)n1` [Compound 469, 1-(2-fluorophenyl)-N-[1-(4-methoxy-3-pyridyl)pyrazol-3-yl]cyclopropanecarboxamide], where the note is “HEK293, HEK293 cells”, the IC50 was > 2000 nM.
For `COc1ccc(-n2ccc(NC(=O)C3(c4ccccc4F)CC3)n2)c(F)c1` [Compound 470], for the setting “HEK293, HEK293 cells”, the IC50 was > 2000 nM.
For `Cc1ncccc1-n1ccc(NC(=O)C2(c3ccccc3F)CC2)n1` [Compound 471, 1-(2-fluorophenyl)-N-[1-(2-methyl-3-pyridyl)pyrazol-3-yl]cyclopropanecarboxamide], where the note is “HEK293, HEK293 cells”, the IC50 is > 5000 nM.
On the same count and under the same terms, the figure for `Cc1ccncc1-n1ccc(NC(=O)C2(c3ccccc3F)CC2)n1` [Compound 472, 1-(2-fluorophenyl)-N-[1-(4-methyl-3-pyridyl)pyrazol-3-yl]cyclopropanecarboxamide] is 56 nM; for `O=C(Nc1ccn(-c2ccccc2)n1)C1(c2cccs2)CC1` [Compound 474, N-(1-phenylpyrazol-3-yl)-1-(2-thienyl)cyclopropanecarboxamide] it is 19 nM; for `O=C(Nc1ccn(-c2ccccc2)n1)C1(c2ccc(F)cn2)CC1` [Compound 475, 1-(5-fluoro-2-pyridyl)-N-(1-phenylpyrazol-3-yl)cyclopropanecarboxamide] it is 270 nM.
Regarding `CC(C)(C(=O)Nc1ccn(-c2ccccc2)n1)c1ccccn1` [Compound 476, 2-methyl-N-(1-phenylpyrazol-3-yl)-2-(2-pyridyl)propanamide], for the setting “HEK293, HEK293 cells”, the IC50 turned out to be 530 nM.
Same read-out and setting: the figure for `O=C(Nc1ccn(-c2ccccc2)n1)C1(c2cnccn2)CC1` [Compound 477, N-(1-phenylpyrazol-3-yl)-1-pyrazin-2-yl-cyclopropanecarboxamide] is 1500 nM; for `COc1cc(-n2ccc(NC(=O)C3(c4cccs4)CC3)n2)ccn1` [Compound 478, N-[1-(2-methoxy-4-pyridyl)pyrazol-3-yl]-1-(2-thienyl)cyclopropanecarboxamide] it is 120 nM.
For `O=C(Nc1ccn(-c2ccc(F)c(F)c2)n1)C1(c2cccs2)CC1` [Compound 479, N-[1-(3,4-difluorophenyl)pyrazol-3-yl]-1-(2-thienyl)cyclopropanecarboxamide], the IC50 (HEK293, HEK293 cells) came out at 190 nM.
Turning to `O=C(Nc1ccn(-c2cc(F)cc(F)c2)n1)C1(c2cccs2)CC1` [Compound 480, N-[1-(3,5-difluorophenyl)pyrazol-3-yl]-1-(2-thienyl)cyclopropanecarboxamide], under “HEK293, HEK293 cells”, the IC50 turned out to be 230 nM.
`O=C(Nc1ccn(-c2ccc(F)cc2)n1)C1(c2cccs2)CC1` [Compound 481, N-[1-(4-fluorophenyl)pyrazol-3-yl]-1-(2-thienyl)cyclopropanecarboxamide]: under “HEK293, HEK293 cells”, the concentration for half-maximal inhibition (IC50) was determined as 160 nM.
Take `O=C(Nc1ccn(-c2ccncc2)n1)C1(c2cccs2)CC1` [Compound 482, N-[1-(4-pyridyl)pyrazol-3-yl]-1-(2-thienyl)cyclopropanecarboxamide]: the IC50 (HEK293, HEK293 cells) was 39 nM.
On the same count and under the same terms, the figure for `O=C(Nc1ccn(-c2cncc(F)c2)n1)C1(c2cccs2)CC1` [Compound 483, N-[1-(5-fluoro-3-pyridyl)pyrazol-3-yl]-1-(2-thienyl)cyclopropanecarboxamide] is < 20 nM; for `O=C(Nc1ccn(-c2cncc(OC(F)F)c2)n1)C1(c2cccs2)CC1` [Compound 484, N-[1-[5-(difluoromethoxy)-3-pyridyl]pyrazol-3-yl]-1-(2-thienyl)cyclopropanecarboxamide] it is > 5000 nM.

(Values after patent US20180251431A1 (VERTEX PHARMACEUTICALS INCORPORATED, priority 2016, published 2018).)
